Laboratory results taken from patent publication US9085561B2, “Cyclic urea- or lactam-substituted quinoxaline-type piperidines as ORL-1 modulators” (priority 2012, dated 2015).
Marks after values point to notes of the source that are not given here.

Columns and labels:
[1] = system: mechanical hyperalgesia in rats subjected to partial sciatic nerve ligation; experiment: Seltzer model (partial sciatic nerve ligation) of neuropathic pain, paw pressure assay (PWT); type: in vivo, rat; settings: for maximum analgesic efficacy of pregabalin (10 mg/kg) as fraction of % reversal of Compound B9a: 3 hours after day 1 administration
human CYP2D6 = human CYP2D6 (Homo sapiens, UniProt P10635); experiment: Cytochrome P450 2D6 inhibition (dextromethorphan O-demethylation, pooled human hepatic microsome)
human CYP2D6, sequence (P10635 whole entry): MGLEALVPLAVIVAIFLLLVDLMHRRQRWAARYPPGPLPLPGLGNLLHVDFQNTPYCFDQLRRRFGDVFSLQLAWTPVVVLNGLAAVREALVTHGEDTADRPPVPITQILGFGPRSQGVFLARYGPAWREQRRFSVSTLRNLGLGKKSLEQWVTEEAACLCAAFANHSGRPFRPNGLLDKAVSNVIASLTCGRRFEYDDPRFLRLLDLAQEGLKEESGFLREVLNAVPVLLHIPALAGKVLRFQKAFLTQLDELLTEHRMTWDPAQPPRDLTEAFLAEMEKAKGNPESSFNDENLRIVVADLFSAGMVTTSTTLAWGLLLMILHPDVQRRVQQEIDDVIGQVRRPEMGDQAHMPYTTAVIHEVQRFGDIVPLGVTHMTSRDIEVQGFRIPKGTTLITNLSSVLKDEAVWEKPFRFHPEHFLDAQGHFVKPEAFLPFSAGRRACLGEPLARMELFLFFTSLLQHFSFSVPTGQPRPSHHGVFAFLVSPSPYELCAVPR

[2] = molecular target: human opioid receptor-like (ORL-1) (Homo sapiens, UniProt P41146); experiment: In vitro ORL-1 receptor [35S]GTPγS functional assay; type: biochemical
human opioid receptor-like (ORL-1), sequence (P41146 whole entry): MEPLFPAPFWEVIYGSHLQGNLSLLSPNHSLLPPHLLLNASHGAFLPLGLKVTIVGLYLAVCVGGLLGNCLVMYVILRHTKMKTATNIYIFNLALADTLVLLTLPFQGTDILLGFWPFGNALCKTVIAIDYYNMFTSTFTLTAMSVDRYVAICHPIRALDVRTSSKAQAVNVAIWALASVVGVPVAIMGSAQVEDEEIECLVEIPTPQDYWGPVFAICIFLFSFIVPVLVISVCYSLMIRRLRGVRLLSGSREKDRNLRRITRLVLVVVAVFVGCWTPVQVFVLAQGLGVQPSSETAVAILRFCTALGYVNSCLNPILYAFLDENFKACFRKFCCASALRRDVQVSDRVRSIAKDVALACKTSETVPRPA

## O=c1cnn(-c2nc3ccccc3n([C@H]3C[C@H]4CCC[C@@H](C3)N4[C@H]3C[C@@H]4CCC[C@@H](C4)C3)c2=O)c(=O)[nH]1 [Compound B9a]
[1]; 1, 3, or 10 mg/kg, all measured time-points on the first day of administration
  reversal compared with the pregabalin control: more effective reversal than the pregabalin control
[1]; once daily administration (3 or 10 mg/kg) for seven days, rats with partial sciatic nerve ligation
  effects against mechanical hyperalgesia: statistically significant effects
[1]; rat Seltzer model, oral 1 mg/kg, 1 h after administration (day 1)
  % Reversal [mean]: 27.0* %
[1]; rat Seltzer model, oral 1 mg/kg, 3 h after administration (day 1), 1 mg/kg
  % Reversal [mean]: 37.0%
[1]; rat Seltzer model, oral 1 mg/kg, 5 h after administration (day 1)
  % Reversal [mean]: 27.0* %
[1]; rat Seltzer model, oral 1 mg/kg, pre-administration
  % Reversal [mean]: 0%
[1]; rat Seltzer model, oral 3 mg/kg once daily, 1 h after administration (day 4)
  % Reversal [mean]: 40.8** %
[1]; rat Seltzer model, oral 3 mg/kg once daily, 1 h after administration (day 7)
  % Reversal [mean]: 47.7** %
[1]; rat Seltzer model, oral 3 mg/kg once daily, 3 h after administration (day 4), 3 mg/kg
  % Reversal [mean]: 46.2%
[1]; rat Seltzer model, oral 3 mg/kg once daily, 3 h after administration (day 7), 3 mg/kg
  % Reversal [mean]: 55.2%
[1]; rat Seltzer model, oral 3 mg/kg once daily, 5 h after administration (day 4)
  % Reversal [mean]: 36.9** %
[1]; rat Seltzer model, oral 3 mg/kg once daily, 5 h after administration (day 7)
  % Reversal [mean]: 42.2** %
[1]; rat Seltzer model, oral 3 mg/kg, 1 h after administration (day 1)
  % Reversal [mean]: 33.1** %
[1]; rat Seltzer model, oral 3 mg/kg, 3 h after administration (day 1), 3 mg/kg
  % Reversal [mean]: 46.2%
[1]; rat Seltzer model, oral 3 mg/kg, 5 h after administration (day 1)
  % Reversal [mean]: 34.6** %
[1]; rat Seltzer model, oral 3 mg/kg, pre-administration
  % Reversal [mean]: 0%
[1]; rat Seltzer model, oral 10 mg/kg once daily, 1 h after administration (day 4)
  % Reversal [mean]: 53.8** %
[1]; rat Seltzer model, oral 10 mg/kg once daily, 1 h after administration (day 7)
  % Reversal [mean]: 50.0** %
[1]; rat Seltzer model, oral 10 mg/kg once daily, 3 h after administration (day 4), 10 mg/kg
  % Reversal [mean]: 64.2%
[1]; rat Seltzer model, oral 10 mg/kg once daily, 3 h after administration (day 7), 10 mg/kg
  % Reversal [mean]: 63.5%
[1]; rat Seltzer model, oral 10 mg/kg once daily, 5 h after administration (day 4)
  % Reversal [mean]: 47.7** %
[1]; rat Seltzer model, oral 10 mg/kg once daily, 5 h after administration (day 7)
  % Reversal [mean]: 42.2** %
[1]; rat Seltzer model, oral 10 mg/kg, 1 h after administration (day 1)
  % Reversal [mean]: 49.2** %
[1]; rat Seltzer model, oral 10 mg/kg, 3 h after administration (day 1), 10 mg/kg
  % Reversal [mean]: 61.5%
[1]; rat Seltzer model, oral 10 mg/kg, 5 h after administration (day 1)
  % Reversal [mean]: 46.9** %
[1]; rat Seltzer model, oral 10 mg/kg, pre-administration
  % Reversal [mean]: 0%
[1]; repeated administration for 7 days, rat Seltzer model
  tolerance development with repeated administration: lack of tolerance development
Human CYP2D6
  IC50: > 20 µM

## O=C(O)Cn1cccc(-c2nc3ccccc3n([C@H]3C[C@H]4CCC[C@@H](C3)N4C3CCCCCCCCC3)c2=O)c1=O [BB13c(iii), 2-(3-(4-((1R,3r,5S)-9-cyclodecyl-9-azabicyclo[3.3.1]nonan-3-yl)-3-oxo-3,4-dihydroquinoxalin-2-yl)-2-oxopyridin-1(2H)-yl)acetic acid]
[2]
  EC50: 0.101 ± 0.02 µM
Human CYP2D6
  IC50: > 20 µM

## O=C(O)Cn1c(-c2nc3ccccc3n([C@H]3C[C@H]4CC[C@@H](C3)N4[C@@H]3C[C@@H]4CCCC[C@@H](C4)C3)c2=O)cccc1=O [DD1b(iii), 2-(6-(4-((1R,3R,5S)-8-((1R,6S,8s)-bicyclo[4.3.1]decan-8-yl)-8-azabicyclo[3.2.1]octan-3-yl)-3-oxo-3,4-dihydroquinoxalin-2-yl)-2-oxopyridin-1(2H)-yl)acetic acid]
Human CYP2D6
  IC50: > 20 µM

## N[C@@H]1CCN(c2nc3ccccc3n([C@H]3C[C@H]4CC[C@@H](C3)N4C3CCCCCCC3)c2=O)C1 [CC101, reference compound]
Human CYP2D6
  IC50: < 1 µM

## NC1CCN(c2nc3ccccc3n(C3CCN(C4CCCCCCC4)CC3)c2=O)CC1 [CC22, reference compound]
Human CYP2D6
  IC50: 1 µM

## O=C(O)Cn1ccc(-c2nc3ccccc3n([C@H]3C[C@H]4CCC[C@@H](C3)N4[C@H]3C[C@@H]4CCC[C@@H](C4)C3)c2=O)cc1=O [Compound U010, 2-(4-(4-((1R,1′R,3r,3R,5S,5′S)-[3,9′-bi(9′-azabicyclo[3.3.1]nonan)]-3′-yl)-3-oxo-3,4-dihydroquinoxalin-2-yl)-2-oxopyridin-1(2H)-yl)acetic acid]
Human CYP2D6
  IC50: > 20 µM

## C[C@@H]1C[C@@H]2C[C@H](C1)C[C@@H](N1[C@@H]3CCC[C@H]1C[C@@H](n1c(=O)c(-c4cc(C(=O)O)c[nH]c4=O)nc4ccccc41)C3)C2 [R28a(i), 5-(4-((1R,1′R,3r,3′R,5S,5′S,7S)-7-methyl-[3,9′-bi(9′-azabicyclo[3.3.1]nonan)]-3′-yl)-3-oxo-3,4-dihydroquinoxalin-2-yl)-6-oxo-1,6-dihydropyridine-3-carboxylic acid]
Human CYP2D6
  IC50: > 20 µM

## Nc1nc(=O)n(-c2nc3ccccc3n([C@H]3C[C@H]4CCC[C@@H](C3)N4[C@@H]3C[C@@H]4CCCC[C@@H](C4)C3)c2=O)cc1F [Compound U067]
Human CYP2D6
  IC50: > 20 µM

## O=c1[nH]c(=O)n(-c2nc3ccccc3n([C@H]3C[C@H]4CCC[C@@H](C3)N4[C@H]3C[C@@H]4CCC[C@@H](C4)C3)c2=O)cc1Br [Compound B16a, 1-(4-((1R,1′R,3r,3R,5S,5′S)-[3,9′-bi(9′-azabicyclo[3.3.1]nonan)]-3′-yl)-3-oxo-3,4-dihydroquinoxalin-2-yl)-5-bromopyrimidine-2,4(1H,3H)-dione]
Human CYP2D6
  IC50: > 20 µM

## Cc1cc(=O)[nH]c(=O)n1-c1nc2ccccc2n([C@H]2C[C@H]3CCC[C@@H](C2)N3[C@H]2C[C@@H]3CCC[C@@H](C3)C2)c1=O [Compound U065, 1-(4-((1R,1R,3r,3′R,5S,5′S)-[3,9′-bi(9′-azabicyclo[3.3.1]nonan)]-3′-yl)-3-oxo-3,4-dihydroquinoxalin-2-yl)-6-methylpyrimidine-2,4(1H,3H)-dione]
Human CYP2D6
  IC50: > 20 µM

## N[C@@H]1CCN(c2nc3ccccc3n(C3CCN(C4CCCCCCC4)CC3)c2=O)C1 [CC51, reference compound]
Human CYP2D6
  IC50: < 1 µM

## Nc1nc(=O)n(-c2nc3ccccc3n([C@H]3C[C@H]4CCC[C@@H](C3)N4[C@H]3C[C@@H]4CCC[C@@H](C4)C3)c2=O)cc1F [B7a(i), 1-((1R,1′R,3r,3′R,5S,5′S)-[3,9′-bi(9′-azabicyclo[3.3.1]nonan)]-3′-yl)-3-(4-amino-5-fluoro-2-oxopyrimidin-1(2H)-yl)quinoxalin-2(1H)-one]
Human CYP2D6
  IC50: > 20 µM

## C[C@@H]1C[C@@H]2C[C@H](C1)C[C@@H](N1[C@@H]3CCC[C@H]1C[C@@H](n1c(=O)c(-n4ncc(=O)[nH]c4=O)nc4ccccc41)C3)C2 [Compound B34a, 2-(4-((1R,1′R,3r,3′R,5S,5′S,7S)-7-methyl-[3,9′-bi(9′-azabicyclo[3.3.1]nonan)]-3′-yl)-3-oxo-3,4-dihydroquinoxalin-2-yl)-1,2,4-triazine-3,5(2H,4H)-dione]
Human CYP2D6
  IC50: > 20 µM

## CC1(C)NC(=O)N(c2nc3ccccc3n([C@H]3C[C@H]4CCC[C@@H](C3)N4[C@@H]3C[C@@H]4CCCC[C@@H](C4)C3)c2=O)C1=O [Compound O22b, 3-(4-((1R,3R,5S)-9-((1R,6S,8s)-bicyclo[4.3.1]decan-8-yl)-9-azabicyclo[3.3.1]nonan-3-yl)-3-oxo-3,4-dihydroquinoxalin-2-yl)-5,5-dimethylimidazolidine-2,4-dione]
Human CYP2D6
  IC50: > 20 µM

## C[C@@H]1C[C@@H]2C[C@H](C1)C[C@@H](N1[C@@H]3CCC[C@H]1C[C@@H](n1c(=O)c(-c4c[nH]c(=O)c(C(N)=O)c4)nc4ccccc41)C3)C2 [Compound U063, 5-(4-((1R,1′R,3r,3′R,5S,5′S,7S)-7-methyl-[3,9′-bi(9′-azabicyclo[3.3.1]nonan)]-3′-yl)-3-oxo-3,4-dihydroquinoxalin-2-yl)-2-oxo-1,2-dihydropyridine-3-carboxamide]
Human CYP2D6
  IC50: 7.2 µM

## O=c1cncc(-c2nc3ccccc3n([C@H]3C[C@H]4CCC[C@@H](C3)N4[C@H]3C[C@@H]4CCC[C@@H](C4)C3)c2=O)[nH]1 [R3a(i), 1-((1R,1′R,3r,3′R,5S,5′S)-[3,9′-bi(9′-azabicyclo[3.3.1]nonan)]-3′-yl)-3-(6-oxo-1,6-dihydropyrazin-2-yl)quinoxalin-2(1H)-one]
Human CYP2D6
  IC50: > 20 µM

## CC(C)C[C@H](CN)CC(=O)O [Pregabalin, pregabalin, reference compound]
[1]; rat Seltzer model, positive control column, oral 10 mg/kg, 3 h after administration (day 1), 10 mg/kg
  % Reversal [mean]: 28.0** %
[1]; rat Seltzer model, positive control column, oral 10 mg/kg, 3 h after administration (day 1), listed as pregabalin, 10 mg/kg
  % Reversal [mean]: 28.0%
[1]; rat Seltzer model, positive control, oral 10 mg/kg, 1 h after administration (day 1)
  % Reversal [mean]: 17.0%
[1]; rat Seltzer model, positive control, oral 10 mg/kg, 5 h after administration (day 1)
  % Reversal [mean]: 15.0%
[1]; rat Seltzer model, positive control, oral 10 mg/kg, pre-administration
  % Reversal [mean]: 0%
[1]; versus B9a 1 mg/kg
  maximum analgesic efficacy of pregabalin (10 mg/kg) as fraction of % reversal of Compound B9a: about 0.76
[1]; versus B9a 3 mg/kg
  maximum analgesic efficacy of pregabalin (10 mg/kg) as fraction of % reversal of Compound B9a: about 0.61
[1]; versus B9a 10 mg/kg
  maximum analgesic efficacy of pregabalin (10 mg/kg) as fraction of % reversal of Compound B9a: about 0.46

## O=C(O)Cn1c(-c2nc3ccccc3n([C@H]3C[C@H]4CCC[C@@H](C3)N4[C@@H]3C[C@@H]4CCCC[C@@H](C4)C3)c2=O)cccc1=O [EE1b(iii), 2-(6-(4-((1R,3R,5S)-9-((1R,6S,8s)-bicyclo[4.3.1]decan-8-yl)-9-azabicyclo[3.3.1]nonan-3-yl)-3-oxo-3,4-dihydroquinoxalin-2-yl)-2-oxopyridin-1(2H)-yl)acetic acid]
Human CYP2D6
  IC50: > 20 µM
